Tested on: child and adolescent epilepsy patients with developmental and epileptic encephalopathies (DEE)
Test: Qualitative caregiver feedback at Week 26
Format: in vivo, human
Conditions: transdermal CBD
From the text: Qualitative assessment of improvement, worsening, or no change for the patient and family, such as but not limited to, daily activities, school attendance and alertness. In the examples, clinicians were asked to capture qualitative caregiver feedback at Week 26 with the following questions asked: (1) “Has anything improved for [patient name] and your family since [patient name] has been using the gel?”; (2) “Has anything got worse since for [patient name] and your family since [patient name] has been using the gel?”; and (3) “Let me just ask about a few specific things: Daily activities e.g. school attendance? If so how? Alertness? If so how?”.
Parents/caregivers were instructed to capture seizure frequency and type, and skin irritation scores, within daily diaries. Parents/caregivers also completed: • (1) The University of Washington Caregiver Stress Scale at Day 1, Week 14, and Week 26. • (2) Epilepsy and Learning Disabilities Quality of Life scale (ELDQOL—modified) at Day 1, Week 14 and Week 26. • (3) Sleep Disturbance Scale for Children (SDSC) at Day 1, Week 14 and Week 26. • (4) Vineland Adaptive Behavior Scale-3 (VABS-3) at Day 1 and Week 26. • (5) Parents/caregivers also completed a daily Likert-type “good day/bad day” questionnaire. • (6) Qualitative Caregiver Feedback at Week 26. Objectives […]

In the case of `C=C(C)C1CCC(C)=CC1c1c(O)cc(CCCCC)cc1O` (stereo not shown) [CBD, 2-[3-methyl-6-(1-methylethenyl)-2-cyclohexen-1-yl]-5-pentyl-1,3-benzenediol], the “qualitative assessments by caregivers” value is reported as “improved many behavioral problems”.
